Experimental findings from patent publication US20130252983A1, “ACTIVATING PHOSPHORYLATION SITE ON GLUTAMINASE C” (CORNELL UNIVERSITY, priority 2010, published 2013) are described below.

Each structure is given as a SMILES string.

The test has as its system NIH 3T3 cells stably expressing Cdc42(F28L), Rac(F28L), RhoC(F30L). The test can be described thus: Invasion through growth factor-reduced Matri-gel. It is filed as cell-based, mouse. The following applies: 10 μM, 24 hours. How it is done:
FIGS. 2A-G illustrate effects of 968 on the transforming activity of constitutively active Rho GTPases and human breast cancer cells. […] Cells were scored after 14 days and plotted as the percentage of the total number of colonies greater than 50 μm in diameter. Data represent the average of 3 experiments (±s.d.). […] Data represent the average of 3 experiments (±s.d.). […] Data represent the average of 3 experiments (±s.d.). […] After 24 hours at 37° C., the migratory cells were fixed, stained with GIEMSA, and counted. Data represent the average of 3 experiments (±s.d.). […] Data represent the average of 3 experiments (±s.d.). […] Data represent the average of 3 experiments (±s.d.). […] Data represent the average of 3 experiments (±s.d.).

As for `CN(C)c1ccc(C2Nc3ccc4ccccc4c3C3=C2C(=O)CC(C)(C)C3)cc1Br` (stereo not shown) [Compound 968, 5-[3-bromo-4-(dimethylamino)phenyl]-2,2-dimethyl-2,3,5,6-tetrahydrobenzo[a]], the invasive activity result is listed as “inhibiting their invasive activity”.
